Measured values: patent publication US20260224582A1, “Heterobicyclic amides as inhibitors of CD38” (Cerevance, Inc., priority 2022, published 2026)
Where two headings read alike, the source gives them in different places.

Legend:
Recombinant human CD38 = molecular target: T1, Recombinant human CD38 (Homo sapiens, UniProt P28907); assay: Human CD38 hydrolase assay (fluorescence-based, ε-NAD substrate); type: biochemical; details: recombinant human CD38 0.8 nM, 4 μM ε-NAD, 30 min preincubation at 25° C.
T1 sequence (P28907 1-300): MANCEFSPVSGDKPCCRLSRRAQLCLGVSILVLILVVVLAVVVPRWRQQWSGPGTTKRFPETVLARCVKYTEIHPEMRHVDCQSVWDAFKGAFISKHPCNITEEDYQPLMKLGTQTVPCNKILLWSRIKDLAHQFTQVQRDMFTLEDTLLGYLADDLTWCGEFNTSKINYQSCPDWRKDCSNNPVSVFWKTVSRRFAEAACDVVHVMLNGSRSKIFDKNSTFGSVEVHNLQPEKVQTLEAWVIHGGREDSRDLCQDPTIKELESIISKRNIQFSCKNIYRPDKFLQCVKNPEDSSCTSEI
Outline: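 Recombinant human CD38 (0.8 nM) preincubated 30 min at 25 °C with compound in PBS without Ca2+/Mg2+, 0.005% BSA, pH 7.4; reaction started with 4 μM ε-NAD. Fluorescence (ex 300/em 410 nm) change over 10 min converted to percent inhibition against tool-inhibitor controls; IC50 from 10-point half-log curves, four-parameter fit.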

[1] = PK brain permeability after single oral gavage; type: in vivo, C57BL/6 mice; details: mice, 10 mg/kg oral, 2 hours post dose; for concentration at 2 h / Kp at 2 h: male, C57BL/6, mouse; for concentration at 2 h: po, 10 mg/kg; for Kp at 2 h: read-out: Kpu, u (unbound partitioning coefficient, Cb,u to Cp,u); for brain permeability (in words): statement on Table 3
Procedure: The distribution of compounds into the brain in vivo was determined in C57BL/6 mice following single oral (po) gavage administration.
Test compounds were formulated at 1 mg/mL in 0.5% HPMC E4M, 0.2% Tween 80 in water to achieve solutions or homogenous suspensions suitable for po administration. Formulations were administered to 3 male C57BL/6 mice at a volume of 10 mL/kg resulting in a dose level of 10 mg/kg. Blood samples were collected at 1 and 2 hours post dose into tubes containing K2EDTA as anticoagulant, processed to plasma and stored at −60° C. or lower until LC-MS/MS analysis. Brains were harvested 2 hours post dose, rinsed with saline, dried, weighed and homogenised under ice cold conditions. Brain homogenates were stored at −60° C. or lower until LC-MS/MS analysis.
Dose formulation concentrations were verified using a LC-UV or LC-MS/MS method. Test compound concentrations in plasma and brain homogenate were quantitatively determined using LC-MS/MS methods developed in individual matrices against calibration curves with QC samples included and acceptance criteria as per CRO SOPs. Concentrations in brain homogenate were corrected for the dilution factor used to prepare the homogenate to give concentrations in whole brain tissue.
Plasma and brain concentration versus time data were reported and plotted in excel. The brain to plasma ratio at 2 hours post dose was calculated for each animal using the following equation:
Brain: plasma=brain concentration (ng/g) at 2 h/plasma concentration (ng/ml) at 2 h As only unbound test compound is available to exert an effect on the target, unbound plasma (Cp,u) and unbound brain (Cb,u) concentrations were calculated by correcting the total concentrations for the unbound fraction in plasma (fu,p) or brain (fu,b) determined from in vitro plasma protein or brain tissue binding assays using the following equations: […]
The unbound partitioning coefficient (Kpu,u) was then calculated based on the ratio of Cb,u to Cp,u using the following equation: […]
In these studies, mice were orally administrated a 10 mg/kg dose and sacrificed 2 hours post dose and tissue samples (brain homogenate and plasma) were analyzed subsequently as described above.

[2] = brain, read-out: total brain conc.
[3] = brain, total corrected for unbound fraction in brain, read-out: free brain conc.
[4] = plasma, read-out: total plasma conc.
[5] = plasma, total corrected for unbound fraction in plasma, read-out: free plasma conc.

SMILES	IC50 (Recombinant human CD38)	concentration at 2 h [1, 2]	concentration at 2 h [1, 3]	Kp at 2 h ([1]; brain)	concentration at 2 h [1, 4]	concentration at 2 h [1, 5]	brain permeability (in words) [1]
O=C(N[C@H]1CC[C@H](NCC(F)(F)F)CC1)c1nc(-n2ccnc2)nc2ncccc12 [Example 4, 2-(1H-imidazol-1-yl)-N-((1r,4r)-4-((2,2,2-trifluoroethyl)amino)cyclohexyl)pyrido[2,3-d]pyrimidine-4-carboxamide]	≤ 40 nM	572 nM	236 nM	0.09	6310 nM	2540 nM	good brain permeability
O=C(N[C@H]1CC[C@H](N2CCC(F)(F)C2)CC1)c1nc(-n2ccnc2)nn2cccc12 [Example 12, N-((1r,4r)-4-(3,3-difluoropyrrolidin-1-yl)cyclohexyl)-2-(1H-imidazol-1-yl)pyrrolo[2,1-f][1,2,4]triazine-4-carboxamide]	≤ 40 nM	8370 nM	575 nM	0.79	12600 nM	788 nM	good brain permeability
O=C(N[C@H]1CC[C@H](N2CC[C@H](F)C2)CC1)c1nc(-n2ccnc2)nn2cccc12 [Example 13, N-((1S,4r)-4-((S)-3-fluoropyrrolidin-1-yl)cyclohexyl)-2-(1H-imidazol-1-yl)pyrrolo[2,1-f][1,2,4]triazine-4-carboxamide]	≤ 40 nM	3380 nM	189 nM	0.23	3660 nM	809 nM	good brain permeability
O=C(N[C@H]1CC[C@H](N2CC[C@@H](F)C2)CC1)c1nc(-n2ccnc2)nn2cccc12 [Example 14, N-((1R,4r)-4-((R)-3-fluoropyrrolidin-1-yl)cyclohexyl)-2-(1H-imidazol-1-yl)pyrrolo[2,1-f][1,2,4]triazine-4-carboxamide]	≤ 40 nM	3320 nM	181 nM	0.19	3930 nM	959 nM	good brain permeability
O=C(N[C@H]1CC[C@H](NCC(F)(F)F)CC1)c1cn2ccnc2c(-n2ccnc2)n1 [Example 19, 8-(1H-imidazol-1-yl)-N-((1r,4r)-4-((2,2,2-trifluoroethyl)amino)cyclohexyl) imidazo[1,2-a]pyrazine-6-carboxamide]	≤ 40 nM	864 nM	218 nM	0.22	5010 nM	954 nM	good brain permeability
O=C(N[C@H]1CC[C@H](NCC(F)(F)F)CC1)c1cn2ncnc2c(-n2ccnc2)n1 [Example 20, 8-(1H-imidazol-1-yl)-N-((1r,4r)-4-((2,2,2-trifluoroethyl)amino)cyclohexyl)-[1,2,4]triazolo[1,5-a]pyrazine-6-carboxamide]	≤ 40 nM	1420 nM	481 nM	0.18	17900 nM	2630 nM	good brain permeability
O=C(N[C@H]1CC[C@H](NCC(F)(F)F)CC1)c1cn2nccc2c(-n2ccnc2)n1 [Example 21, 4-(1H-imidazol-1-yl)-N-((1r,4r)-4-((2,2,2-trifluoroethyl)amino)cyclohexyl)pyrazolo[1,5-a]pyrazine-6-carboxamide]	≤ 40 nM	1500 nM	507 nM	0.2	8220 nM	2470 nM	good brain permeability
O=C(N[C@H]1CC[C@H](NCC(F)(F)F)CC1)c1nc(-n2ccnc2)nn2cccc12 [Example 29, 2-(1H-imidazol-1-yl)-N-((1r,4r)-4-((2,2,2-trifluoroethyl)amino)cyclohexyl)pyrrolo[2,1-f][1,2,4]triazine-4-carboxamide]	≤ 40 nM	4920 nM	319 nM	0.39	19100 nM	840 nM	good brain permeability
O=C(N[C@H]1CC[C@H](N2CCC(F)(F)C2)CC1)c1cn2ccnc2c(-n2ccnc2)n1 [Example 41, N-((1r,4r)-4-(3,3-difluoropyrrolidin-1-yl)cyclohexyl)-8-(1H-imidazol-1-yl) imidazo[1,2-a]pyrazine-6-carboxamide]	≤ 100 nM	1580 nM	241 nM	0.11	10600 nM	2160 nM	good brain permeability
O=C(N[C@H]1CC[C@H](N2CC(F)(F)C2)CC1)c1cn2ncnc2c(-n2ccnc2)n1 [Example 45, N-((1r,4r)-4-(3,3-difluoroazetidin-1-yl)cyclohexyl)-8-(1H-imidazol-1-yl)-[1,2,4]triazolo[1,5-a]pyrazine-6-carboxamide]	≤ 40 nM	2160 nM	555 nM	0.16	9340 nM	3490 nM	good brain permeability
O=C(N[C@H]1CC[C@H](N2CCC(F)(F)C2)CC1)c1cn2ncnc2c(-n2ccnc2)n1 [Example 48, N-((1r,4r)-4-(3,3-difluoropyrrolidin-1-yl)cyclohexyl)-8-(1H-imidazol-1-yl)-[1,2,4]triazolo[1,5-a]pyrazine-6-carboxamide]	≤ 100 nM	2570 nM	403 nM	0.2	8000 nM	1980 nM	good brain permeability
